Measurements published in patent publication US6312704A, “Orally administrable composition capable of providing enhanced bioavailability when ingested” (Gattefosse, S.A., priority 1993, dated 2001).

Tests used:
[1] = assay type: physicochemical; conditions: gastric medium pH 1.2
Text: The proportions by weight of the different constituents of this mixture are: […]

[2] = in vitro rate of dissolution of hydrocortisone in a gastric medium (pH 1.2); assay type: physicochemical
Text: In this example, the rates of dissolution of hydrocortisone in a gastric medium (at pH 1.2) are compared.
The same lipophilic phase and the same SA/CoSA mixture are used as in Example 8, but in the following proportions: […]

[3] = in vitro dissolution of indomethacin in a gastric medium at pH 1.2; assay type: physicochemical; conditions: gastric medium pH 1.2
Method: In all the examples, the complement by weight to […] of the composition is, in actual fact, represented by an anti-inflammatory active principle, namely indomethacin in Examples 1 to 8, and 12, hydrocortisone in Example 9 and diclofenac sodium in Example 10. In examples 1-12, the hydrophilic phase is represented by water which is known to be a simulation of the digestive milieu for in vitro tests.
By way of comparison, when the pure active agent (indomethacin) is tested, at best only 5% of this active agent is dissolved in one hour; and still by way of comparison, with hard gelatin capsules of this active principle which are currently on the market, only 4.7% of active agent dissolved is obtained at the end of one hour.
In this example, the rates of dissolution in vitro in a gastric medium (at pH =1.2), in which indomethacin alone has a rate of dissolution of less than 5% in the same medium, are compared.
(§1) The proportions by weight of the different constituents of this mixture are:
In this example, the same components are used as in the preceding example, with different proportions, namely: […]

[4] = in vivo test on rats, plasma concentrations after oral administration of indomethacin; conditions: powder made into a suspension immediately before use
Method: In vivo tests were conducted on rats with indomethacin as active agent.
as §1
An oral administration of indomethacin is first carried out according to the above composition.
A second series of tests consists in administering indomethacin orally in the form of powder made into a suspension immediately before use.

O=C(O)Cc1ccccc1Nc1c(Cl)cccc1Cl [diclofenac sodium]
rate of dissolution in 30 min ([1]; 30 min): 1% | solubility in gastric medium (in words) ([1]; powder form): almost insoluble

C[C@]12CCC(=O)C=C1CC[C@@H]1[C@@H]2[C@@H](O)C[C@@]2(C)[C@H]1CC[C@]2(O)C(=O)CO [hydrocortisone]
rate of dissolution in 45 minutes [2]: 10%

COc1ccc2c(c1)c(CC(=O)O)c(C)n2C(=O)c1ccc(Cl)cc1 [indomethacin]
percentage of the active agent dissolved at the end of one hour ([3]; one hour): ≤ 5% | rate of dissolution ([3]; indomethacin alone, time not stated): less than 5% | kinetics obtained [4]: irregular and vary from one animal to another | concentration at 1 h ([4]; rat, in vivo, one hour): 1000 to 5000 ng/mL | concentration at 2 h ([4]; rat, in vivo, two hours): 1000 to 4000 ng/mL
